Counter-ions that a name gives are not always drawn. Like-named read-outs stand apart in the source and are kept apart here.
Tests used:
E. cloacae 1V25 = assay: MIC; settings: Enterobacter cloacae
C. freundii 5D60-1 = assay: MIC; settings: Citrobacter freundii, 5D601
P. aeruginosa 4au542 = assay: MIC; settings: Pseudomonas aeruginosa, 4AU542, P. aeruginosa 4au542; Table 2, sodium salt
P. aeruginosa 5D58-1 = assay: MIC; settings: Pseudomonas aeruginosa, 5D581, P. aeruginosa 5D58-1; Table 2, sodium salt
E. coli GN5482 = assay: MIC; settings: Escherichia coli, GN5482, E. coli GN5482; Table 2, sodium salt
K. pneumoniae 4at521 = assay: MIC; settings: Klebsiella pneumoniae, 4AT521
C. freundii 1R524 = assay: MIC; settings: Citrobacter freundii, 1R524
C. freundii 1R523 = assay: MIC; settings: Citrobacter freundii, 1R523
P. maltophilia OF247 = assay: MIC; settings: Stenotrophomonas maltophilia, Table 2, sodium salt
E. cloacae 5D63-2 = assay: MIC; settings: Enterobacter cloacae, 5D632
S. aureus Smith = assay: MIC; settings: Staphylococcus aureus, Table 2, sodium salt
E. coli ML4707 = assay: MIC; settings: Escherichia coli, ML4707, E. coli ML4707; Table 2, sodium salt
S. marcescens GN10857 = assay: MIC; settings: Serratia marcescens, GN10857, S. marcescens GN10857; Table 2, sodium salt
C. freundii 1R527 = assay: MIC; settings: Citrobacter freundii, 1R527
C. freundii 1R526 = assay: MIC; settings: Citrobacter freundii, 1R526
C. freundii GN7391 = assay: MIC; settings: Citrobacter freundii, GN7391, C. freundii GN7391
P. aeruginosa GN10362 = assay: MIC; settings: Pseudomonas aeruginosa, GN10362
E. cloacae 5D52-2 = assay: MIC; settings: Enterobacter cloacae, 5D522
P. vulgaris GN7919 = assay: MIC; settings: Proteus vulgaris, GN7919
E. coli NIHJ JC-2 = assay: MIC; type: cell-based; settings: Escherichia coli, NIHJJC2, Table 2, sodium salt
Protocol: (§1) The minimum inhibition concentrations (MIC) of the compounds obtained in Example 1 and Example 2 were measured according to the standard method of Japanese Chemotherapy Association.

A. calcoaceticu OF1063 = assay: MIC; type: cell-based; settings: Table 2, sodium salt
Protocol: as §1

A. xylosoxidans OF1001 = assay: MIC; type: cell-based; settings: Achromobacter xylosoxidans, Table 2, sodium salt
Protocol: as §1

E. colacae GN7471 = assay: MIC; settings: Table 2, sodium salt
E. cloacae 1Y247 = assay: MIC; type: cell-based; settings: Enterobacter cloacae, Table 3, sodium salt, read-out: MIC
Protocol: The minimum inhibition concentrations (MIC) of the compounds obtained in the respective examples described above were measured according to the standard method of Japanese Chemotherapy Association.

[1] = central and tissue distribution volume in Macaco (parenteral, HPLC); type: in vivo; settings: monkey, blood, 20 mg/kg, 20 mg/kg parenteral, sodium salt
Protocol: 20 mg/kg of the compound obtained in Example 1 was administered parenterally to Macaco and a central distribution volume and a tissue distribution volume were calculated by their concentrations in blood measured with time.
The concentration of the compound was measured according to HPLC method. Microbondapack C18 (trade name, produced by Waters Co.) was used as a column and 8% acetonitrile-2% tetrahydrofuran-0.2% phosphoric acid was used as a solvent.

C. freundii 1U589 = assay: MIC; settings: Citrobacter freundii, 1U589
P. cepacia OF189 = assay: MIC; settings: Burkholderia cepacia, OF189, P. cepacia OF189; Table 2, sodium salt
E. cloacae 908RN = assay: MIC; settings: Enterobacter cloacae
C. freundii 1U692 = assay: MIC; settings: Citrobacter freundii, 1U692

Which results are given for `CC(C)(ON=C(C(=O)NC1C(=O)N2C(C(=O)O)=C(COC(N)=O)CSC12)c1csc(N)n1)C(=O)NNC(=O)c1ccc(O)c(O)c1` (centres unmarked) [Example 1, 7-{2-[2-amino-1,3-thiazol-4-yl]-2-[1-(3-(3,4-dihydroxybenzoyl)carbazoyl)-1-methylethoxyimino]acetamide}-3-carbamoyloxymethyl-3-cephem-4-carboxylic acid.hydrochloride]?
MIC (E. cloacae 1V25): 50 µg/mL; MIC (C. freundii 5D60-1): 50 µg/mL; MIC (P. aeruginosa 4au542): 0.05 µg/mL; MIC (P. aeruginosa 5D58-1): 0.2 µg/mL; MIC (E. coli GN5482): 1.56 µg/mL; MIC (K. pneumoniae 4at521): 0.012 µg/mL; MIC (C. freundii 1R524): 12.5 µg/mL; MIC (C. freundii 1R523): 25 µg/mL; MIC (P. maltophilia OF247): 0.78 µg/mL; MIC (E. cloacae 5D63-2): 50 µg/mL; MIC (S. aureus Smith): 6.26 µg/mL; MIC (E. coli ML4707): 0.025 µg/mL; MIC (S. marcescens GN10857): 0.78 µg/mL; MIC (C. freundii 1R527): 12.5 µg/mL; MIC (C. freundii 1R526): 25 µg/mL; MIC (C. freundii GN7391; Table 2, sodium salt): > 100 µg/mL; MIC (C. freundii GN7391; Table 3, sodium salt): > 100 µg/mL; MIC (P. aeruginosa GN10362): 0.05 µg/mL; MIC (E. cloacae 5D52-2): 25 µg/mL; MIC (P. vulgaris GN7919): 3.13 µg/mL; MIC (E. coli NIHJ JC-2): 0.1 µg/mL; MIC (A. calcoaceticu OF1063): 3.13 µg/mL; MIC (A. xylosoxidans OF1001): 1.56 µg/mL; MIC (E. colacae GN7471): 25 µg/mL; MIC (E. cloacae 1Y247): > 100 µg/mL; Vd ([1]; read-out: Central distribution volume): 0.144 L/kg; Vd ([1]; read-out: Tissue distribution volume): 0.295 L/kg; MIC (C. freundii 1U589): 12.5 µg/mL; MIC (P. cepacia OF189): 0.025 µg/mL; MIC (E. cloacae 908RN; E. cloacae 908RN, Table 3, sodium salt): > 100 µg/mL; MIC (E. cloacae 908RN; E. colacae 908RN, Table 2, sodium salt): > 100 µg/mL; MIC (C. freundii 1U692): 25 µg/mL
